PubChem BioAssay (NCI)
Several values for one entry are separate records, joined by “and”; a condition that tells them apart may be missing. Equal values may be shown once.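 Cultured in 96-well plates, cells were exposed to test compound for 48 hours across five concentrations. Abbreviation: GI50, concentration required for 50% inhibition of growth. Definition used: TGI = concentration required for complete inhibition of growth.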

Key:
Test in all cases: growth of human tumour cells (NCI), 48 h
[1] = system: HL-60(TB) leukemia
[2] = system: SK-MEL-2 melanoma
[3] = system: IGROV1 ovarian
[4] = system: PC-3 prostate
[5] = system: 786-0 renal
[6] = system: EKVX NSCLC
[7] = system: COLO 205 colon
[8] = system: RXF 393 renal
[9] = system: SF-539 CNS
[10] = system: HT29 colon

SMILES | GI50 [1] | TGI [1] | GI50 [2] | TGI [2] | GI50 [3] | TGI [3] | GI50 [4] | TGI [4] [µM] | GI50 [5] | TGI [5] [µM] | GI50 [6] | TGI [6] | GI50 [7] | TGI [7] | GI50 [8] | TGI [8] | GI50 [9] | TGI [9] | GI50 [10] | TGI [10]
Clc1ccc(N=CNc2ccc(-c3nc4ccccc4[nH]3)cc2)cc1 | 0.631 µM | > 100 µM | 76.6 µM | > 100 µM | > 100 µM | > 100 µM | > 100 µM | > 100 | 68.1 µM | > 100 | 0.482 µM | 34.5 µM | 3.99 µM | > 100 µM | > 100 µM | > 100 µM | – | – | – | –
COC(=O)C(NC(=O)c1ccccc1)c1ccc(OC)c(I)c1 (stereo not given) | 41.6 µM | > 100 µM | > 100 µM | > 100 µM | 53.2 µM | > 100 µM | 40.1 µM | > 100 | > 100 µM | > 100 | 89.1 µM | > 100 µM | 80.8 µM | > 100 µM | > 100 µM | > 100 µM | > 100 µM | > 100 µM | 49 µM | > 100 µM
COc1cc2nccc(Oc3ccc(NC(=O)C4(C(=O)Nc5ccc(F)cc5)CC4)cc3)c2cc1OC | > 10 µM and 3.87 µM | > 10 µM and 21.6 µM | > 10 µM and 7.13 µM | > 10 µM and 27.9 µM | 4.51 µM and 2.59 µM | > 31 µM | > 10 µM and 3.42 µM | > 100 | > 10 µM and 5.52 µM | > 54.9 | > 10 µM and 6.98 µM | > 10 µM and 97.3 µM | 6 µM and 2.1 µM | > 10 µM and 4.63 µM | > 10 µM and 2.17 µM | > 10 µM and 6.93 µM | 1.13 µM and 1.42 µM | > 10 µM and 12.2 µM | 7.71 µM and 2.74 µM | > 10 µM and 20.4 µM
O=C(Nc1cccc(C(F)(F)F)c1)Nc1cc(S(=O)(=O)NC2CC2)ccc1-c1ccsc1 | 3.01 µM | 8.03 µM | 3.15 µM | 13.7 µM | 7.18 µM | 25.4 µM | 3.4 µM | 18.6 | 6.1 µM | 20.9 | 2.45 µM | 12.2 µM | 2.71 µM | 7.41 µM | 4.98 µM | 18.8 µM | 4.22 µM | 16.4 µM | 4.25 µM | 16.1 µM
ClCc1ccc(Cn2cnc3nc(Cl)nc(Cl)c32)cc1 | – | – | 1.41 µM | 3.06 µM | 1.37 µM | 2.72 µM | 2.9 µM | 7.98 | 0.417 µM | 0.89 | 0.704 µM | 1.88 µM | 5.66 µM | > 20.5 µM | 1.3 µM | 3.24 µM | 0.593 µM | 1.14 µM | 0.97 µM | –
Oc1ccc(/C=N/Nc2nnc(N/N=C/c3ccc(O)cc3O)c3ccccc23)c(O)c1 | 0.376 µM | 0.598 µM and 4.81 µM | 0.674 µM | 0.623 µM and 2.57 µM | 0.493 µM | 3.24 µM | – | 8.82 | 0.593 µM | 2.46 | 0.349 µM | – | 0.897 µM | 2.96 µM | 0.519 µM | 2.4 µM | – | 0.714 µM and 0.755 µM | 1.76 µM | 7.2 µM
COc1ccc(-c2ccc(/C=N/n3c(COc4ccc(Cl)c(C)c4)nn(CN4CCOCC4)c3=S)o2)c([N+](=O)[O-])c1 | 24.1 µM | 50.9 µM | – | – | 40.3 µM | > 100 µM | 17.7 µM | 51.1 | 32.5 µM | > 100 | 26.4 µM | > 100 µM | 39.8 µM | > 100 µM | 19.1 µM | 52.7 µM | 22 µM | 53.9 µM | 21.6 µM | 51.2 µM
CC(C)C12CCC3(CCC4C(C)(C(=O)O)CCCC4(C)C3C1)C(CN)C2 (stereo not given) | – | – | – | > 100 µM | – | > 100 µM | – | > 100 | – | 54.4 | – | 62 µM | – | 33.2 µM | – | > 100 µM | – | 78.9 µM | – | 47.2 µM
CC(=O)OCc1cc2c(s1)C(=O)c1sccc1C2=O | – | – | – | 0.249 µM | – | 2.79 µM | – | 0.563 | – | 1.84 | – | 0.36 µM | – | 3.03 µM | – | 0.31 µM | – | 0.285 µM | – | 1.43 µM
C=CCCC1(CCP(=O)(c2ccccc2)c2ccccc2)OCCO1 | – | > 100 µM | – | > 100 µM | – | > 100 µM | – | > 100 | – | > 100 | – | > 100 µM | – | > 100 µM | – | > 100 µM | – | > 100 µM | – | > 100 µM
O=C1C(=O)c2c(ccc3ccccc23)-c2ccccc21 | 2.83 µM | 5.85 µM | 1.73 µM | 3.78 µM | – | – | 1.81 µM | 6.25 | 3.13 µM | > 100 | 1.98 µM | 5.39 µM | 2.24 µM | 6.55 µM | 1.68 µM | 3.22 µM | 1.89 µM | 4.07 µM | 2.52 µM | 6.21 µM
O=C1COc2c(CCNCCN(C(=O)CCNCCc3ccc(Cl)c(Cl)c3)C3CCCCC3)ccc(O)c2N1 | 14.2 µM | 32.1 µM | 17.2 µM | 34.9 µM | 15 µM | 30.1 µM | 16 µM | 30.3 | 17.2 µM | 32.9 | 15.4 µM | 30 µM | 14.8 µM | 32.3 µM | 14.8 µM | 30.7 µM | 15.1 µM | 29.7 µM | 16.7 µM | 33.8 µM
Cc1c(-c2ccc(N3CCc4cccc(C(=O)Nc5nc6ccccc6s5)c4C3)nc2C(=O)O)cnn1CC12CC3CC(CC(C3)C1)C2 | 3.43 µM | 18.7 µM | 3.1 µM | 20.5 µM | 12.6 µM | 31.5 µM | 1.42 µM | 6.15 | 3.65 µM | 12.4 | 8.62 µM | 28.3 µM | 0.63 µM | 10.9 µM | 0.0853 µM | 4.61 µM | 6.51 µM | 21.8 µM | 7.79 µM | 25.3 µM
Nc1ccc(N)c2c1C(=O)c1cccc([N+](=O)[O-])c1C2=O | 3.65 µM | > 41.1 µM | 7.74 µM | > 100 µM | 3.92 µM | > 100 µM | 15.6 µM | > 100 | 2.72 µM | 32.1 | 7.72 µM | > 100 µM | 4.17 µM | > 55.4 µM | 7.16 µM | 54.9 µM | 1.92 µM | > 22.4 µM | 5.6 µM | > 100 µM
COc1cc([C@H]2c3cc(O)c(OC)cc3C[C@]3(O)[C@@H]2CO[C@@H]3O)ccc1O | – | > 100 µM | – | > 100 µM | – | > 100 µM | – | > 100 | – | > 100 | – | > 100 µM | – | > 100 µM | – | – | – | > 100 µM | – | > 100 µM
Cc1cc(C2(c3cc(C)c(O)c4ncccc34)OC(=O)c3ccccc32)c2cccnc2c1O | – | – | 0.117 µM | > 100 µM | – | 7.94 µM and 21.9 µM | 0.0957 µM | > 100 | 0.114 µM | > 100 | 0.0124 µM | – | 0.405 µM | 28.5 µM | – | > 100 µM | 0.02 µM | 4.69 µM and 11.7 µM | 0.106 µM | > 100 µM
CC(C)c1nc(Cl)c(Cl)c(Cl)n1 | – | 5.4 µM | – | – | – | 19.5 µM | – | 17.7 | – | 16.1 | – | 29.1 µM | – | 11.9 µM | – | 7.97 µM | – | 25.2 µM | – | 17.9 µM
COc1cc2c(cc1OCCCN1CCN(CCCn3c4ccccc4c4ccccc43)CC1)N=C[C@@H]1CCCN1C2=O | 0.0249 µM | – | 0.159 µM | 0.539 µM | – | – | 0.0585 µM | 0.523 | 0.28 µM | 1.01 | 0.268 µM | 0.988 µM | 0.0749 µM | 0.235 µM | – | – | 0.225 µM | 0.49 µM | 0.0342 µM | 0.289 µM
Oc1ccc(CCNc2nc3ccccc3c3[nH]c4ccccc4c23)cc1 | 2.4 µM | 5.41 µM | 1.73 µM | 3.36 µM | – | – | 1.63 µM | 3.31 | 1.29 µM | 2.69 | 1.91 µM | 3.95 µM | – | – | 1.25 µM | 2.66 µM | 1.73 µM | 3.19 µM | – | –
O=NNc1nc(-c2ccccn2)nc2ccccc12 | – | > 100 µM | – | 39.5 µM | – | > 100 µM | – | > 100 | – | 39.9 | – | > 100 µM | – | > 100 µM | – | – | – | > 100 µM | – | 18.7 µM
N#Cc1c(N)nc(N2CCOCC2)c(C#N)c1-c1ccc(Cl)cc1Cl | – | – | 13.6 µM | 32.4 µM | 6.64 µM | 23.6 µM | 10.9 µM | 35.2 | 19.5 µM | 44.8 | 20.1 µM | 64.3 µM | 16.6 µM | 40.6 µM | 5.67 µM | 38.4 µM | 17.9 µM | 42.1 µM | 16.4 µM | 39.3 µM
COc1cccc2c(Nc3ccc(C(=O)NCCN4CCNCC4)cc3)cc(-c3ccccc3)nc12 | – | – | 19.9 µM | 51.7 µM | 32.1 µM | > 100 µM | 25.8 µM | > 100 | 51.1 µM | > 100 | > 100 µM | > 100 µM | 19.7 µM | 56.1 µM | > 100 µM | > 100 µM | 22.9 µM | 57 µM | 20.7 µM | > 100 µM
COc1cc(COC(=O)NC(Cc2cccs2)C(=O)O)c([N+](=O)[O-])cc1OC (stereo not given) | – | > 100 µM | – | – | – | > 100 µM | – | > 100 | – | > 100 | – | > 100 µM | – | > 100 µM | – | > 100 µM | – | > 100 µM | – | > 100 µM
